The record followed here is patent US20240317721A1, “PYRAZOLYL DERIVATIVES AS INHIBITORS OF THE KRAS MUTANT PROTEIN” (NOVARTIS AG, priority 2021, published 2024).

pIC50: −log10 of the molar value. Where only a bound is given, the exact number is not on record here.

The target in the assay is KRasG12C (M1-K169, biotinylated on the N-terminus) (Homo sapiens (Human), UniProt P01116, G12C). The assay can be described thus: Covalent competition assay: scintillation proximity assay (SPA) quantifying covalent modification of KRASG12C. It counts as binding. As to conditions: competition with radiolabeled covalent probe (Compound B/Compound A), 2 hours incubation, 10 nM KRasG12C. The gist of the method: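 Test compounds compete with a radiolabeled covalent probe for modification of N-terminally biotinylated KRasG12C(M1-K169):GDP, final 10 nM protein, 25 nM radio-ligand, 475 nM unlabelled ligand, 2 h with agitation in 20 mM Tris-HCl pH 7.5, 150 mM NaCl, 0.1 mM MgCl2, 0.01% Tween-20.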
A general note: SPA uses beads or plates that emit light when radiolabelled molecules are held near them.
The pIC50 is the negative decadic logarithm of the IC50, by convention in mol/L. As for `C=CC(=O)N1CC2(CC(n3nc(N4CCC(N5CC(OC)C5)CC4(C)C)c(-c4c(Cl)c(Cl)cc5[nH]ncc45)c3C)C2)C1` (single isomer, unassigned) [Example 209b, 1-(6-(4-(5,6-dichloro-1H-indazol-4-yl)-3-(4-(3-methoxyazetidin-1-yl)-2,2-dimethylpiperidin-1-yl)-5-methyl-1H-pyrazol-1-yl)-2-azaspiro[3.3]heptan-2-yl)prop-2-en-1-one], the negative-log IC50 (pIC50) is 7.92.
The figure for `C=CC(=O)N1CC2(CC(n3nc(N4CCOCC4(C)C)c(-c4c(Cl)c(C)cc5[nH]ncc45)c3C)C2)C1` (single isomer, unassigned) [Example 22a, 1-(6-(4-(5-chloro-6-methyl-1H-indazol-4-yl)-3-(3,3-dimethylmorpholino)-5-methyl-1H-pyrazol-1-yl)-2-azaspiro[3.3]heptan-2-yl)prop-2-en-1-one] is less than 4.30; for `C=C(F)C(=O)N1CC2(CC(n3nc(N4CCN(C[C@@H]5COCCO5)C[C@]4(C)COC)c(-c4c(Cl)c(Cl)cc5[nH]ncc45)c3C)C2)C1` (single isomer, unassigned) [Example 184a] it is less than 5.30.
The figure for `C=CC(=O)N1CC2(CC(n3nc(N4CCN(C5CCOC5)CC45CCC5)c(-c4c(Cl)c(C)cc5[nH]ncc45)c3C)C2)C1` (single isomer, unassigned) [Example 132c, 1-(6-(4-(5-chloro-6-methyl-1H-indazol-4-yl)-5-methyl-3-(8-(tetrahydrofuran-3-yl)-5,8-diazaspiro[3.5]nonan-5-yl)-1H-pyrazol-1-yl)-2-azaspiro[3.3]heptan-2-yl)prop-2-en-1-one] is 7.62; for `C=CC(=O)N1CC2(CC(n3nc(N4CC[C@@H](CN5CC(O)C(OC)C5)CC4(C)C)c(-c4c(Cl)c(Cl)cc5[nH]ncc45)c3C)C2)C1` (single isomer, unassigned) [Example 273a, 1-(6-(4-(5,6-dichloro-1H-indazol-4-yl)-3-((R)-4-(((3S*,4S*)-3-hydroxy-4-methoxypyrrolidin-1-yl)methyl)-2,2-dimethylpiperidin-1-yl)-5-methyl-1H-pyrazol-1-yl)-2-azaspiro[3.3]heptan-2-yl)prop-2-en-1-one] it is 5.96.
With `C=CC(=O)N1CC2(CC(n3nc(N4CC[C@@H](CN5CCC[C@H]5C(=O)N(C)C)CC4(C)C)c(-c4c(Cl)c(Cl)cc5[nH]ncc45)c3C)C2)C1` (single isomer, unassigned) [Example 313b] the figure was 8.22; with `C=CC(=O)N1CC2(CCC(n3nc(N4CCN(C(C)=O)CC4)c(-c4c(Cl)ccc5[nH]ncc45)c3C)C2)C1` (single isomer, unassigned) [Example 53c, 1-(6-(3-(4-acetylpiperazin-1-yl)-4-(5-chloro-1H-indazol-4-yl)-5-methyl-1H-pyrazol-1-yl)-2-azaspiro[3.4]octan-2-yl)prop-2-en-1-one], less than 4.30; with `C=CC(=O)N1CC2(CC(n3nc(N4CCN(c5nccn5C)C[C@]4(C)CC)c(-c4c(Cl)c(C)cc5[nH]ncc45)c3C)C2)C1` (single isomer, unassigned) [Example 194a], 7.72.
With `C=CC(=O)N1CC2(CC(n3nc(N4C[C@@H]5C[C@H]4CN5C(C)=O)c(-c4c(Cl)c(C)cc5[nH]ncc45)c3C)C2)C1` [Example 6, 1-(6-(3-((1S,4S)-5-acetyl-2,5-diazabicyclo[2.2.1]heptan-2-yl)-4-(5-chloro-6-methyl-1H-indazol-4-yl)-5-methyl-1H-pyrazol-1-yl)-2-azaspiro[3.3]heptan-2-yl)prop-2-en-1-one], the pIC50 is 6.00.
The figure for `C=CC(=O)N1CC2(CC(n3nc(N4CCc5cnn(C)c5C4)c(-c4c(Cl)c(C)cc5[nH]ncc45)c3C)C2)C1` (single isomer, unassigned) [Example 14a, 1-(6-(4-(5-chloro-6-methyl-1H-indazol-4-yl)-5-methyl-3-(1-methyl-1,4,5,7-tetrahydro-6H-pyrazolo[3,4-c]pyridin-6-yl)-1H-pyrazol-1-yl)-2-azaspiro[3.3]heptan-2-yl)prop-2-en-1-one] is less than 4.30; for `C=CC(=O)N1CC2(CC(n3nc(N4CCN(C5CCCOC5)C[C@]4(C)CC)c(-c4c(Cl)c(C)cc5[nH]ncc45)c3C)C2)C1` (single isomer, unassigned) [Example 157a] it is less than 5.30; for `C=CC(=O)N1CC2(CC(n3nc(N4CC[C@@H](CN5CC6C5CCN6C5COC5)CC4(C)C)c(-c4c(Cl)c(Cl)cc5[nH]ncc45)c3C)C2)C1` (single isomer, unassigned) [Example 277a, 1-(6-(4-(5,6-dichloro-1H-indazol-4-yl)-3-((R)-2,2-dimethyl-4-(((1S*,5S*)-2-(oxetan-3-yl)-2,6-diazabicyclo[3.2.0]heptan-6-yl)methyl)piperidin-1-yl)-5-methyl-1H-pyrazol-1-yl)-2-azaspiro[3.3]heptan-2-yl)prop-2-en-1-one] it is 5.35.
The figure for `C=CC(=O)N1CC2(CC(n3nc(N4CC[C@@H](CN5CCC56COC6)CC4(C)C)c(-c4c(Cl)c(Cl)cc5[nH]ncc45)c3C)C2)C1` (single isomer, unassigned) [Example 307a] is less than 5.30; for `C=CC(=O)N1CC2(CC(n3nc(N4CC[C@@H](CN5CC6COCC(C5)O6)CC4(C)C)c(-c4c(Cl)c(Cl)cc5[nH]ncc45)c3C)C2)C1` (single isomer, unassigned) [Example 308a] it is 6.13.
With `C=CC(=O)N1CC2(CC(n3nc(N4CCC(CN5CCOCC5)C4(C)C)c(-c4c(Cl)c(Cl)cc5[nH]ncc45)c3C)C2)C1` (single isomer, unassigned) [Example 218a, 1-(6-(4-(5,6-dichloro-1H-indazol-4-yl)-3-(2,2-dimethyl-3-(morpholinomethyl)pyrrolidin-1-yl)-5-methyl-1H-pyrazol-1-yl)-2-azaspiro[3.3]heptan-2-yl)prop-2-en-1-one] the figure was 7.09; with `C=CC(=O)N1CC2(CC(n3nc(N4CC[C@@H](CN5CC6(CCOC6)C5)CC4(C)C)c(-c4c(Cl)c(Cl)cc5[nH]ncc45)c3C)C2)C1` (single isomer, unassigned) [Example 316b], 8.05; with `C=CC(=O)N1CC2(CC(n3nc(N4CC[C@@H](CN5CCN6C(=O)N(C)CC6C5)CC4(C)C)c(-c4c(Cl)c(Cl)cc5[nH]ncc45)c3C)C2)C1` (single isomer, unassigned) [Example 264a], 6.45.
`C=CC(=O)N1CC2(CC(n3nc(N4CCN(C[C@@H]5COCCO5)C[C@@]4(C)C(F)F)c(-c4c(Cl)c(Cl)cc5[nH]ncc45)c3C)C2)C1` (single isomer, unassigned) [Example 105a]: the pIC50 was less than 5.30.
With `C=CC(=O)N1CC2(CC(n3nc(N4CC[C@@H](CN5CCC56COC6)CC4(C)C)c(-c4c(Cl)c(Cl)cc5[nH]ncc45)c3C)C2)C1` (single isomer, unassigned) [Example 307b], the pIC50 is 8.10.
On to `C=CC(=O)N1CC2(CC(n3nc(N4CC[C@@H](CN5CCN(C6COC6)CC5)CC4(C)C)c(-c4c(Cl)ccc5[nH]ncc45)c3C)C2)C1` (single isomer, unassigned) [Example 255a], for which the pIC50 is 5.48.
The figure for `C=CC(=O)N1CC2(CC(n3nc(N4CC[C@@H](CN5CC6(CCN(C7COC7)C6)C5)CC4(C)C)c(-c4c(Cl)c(Cl)cc5[nH]ncc45)c3C)C2)C1` (single isomer, unassigned) [Example 267a] is 6.14.
